Laboratory results reported in US20250214942A1, “INHIBITORS OF RECEPTOR INTERACTING PROTEIN KINASE I FOR THE TREATMENT OF DISEASE” (Board of Regents, The University of Texas System, priority 2019, published 2025).

The compounds below were run on human monocytic cell line U937 (assay: Human U937 cellular necroptosis assay (TNFalpha + z-VAD-FMK, Cell Titer-Glo viability)). Details: Homo sapiens, U-937, 22 h, U937 cells, 25 ng/mL human TNFalpha + 25 μM z-VAD-FMK, read-out: hU937 Avg IC50.
Format: cell-based
Description: The human monocytic cell line U937 (CRL-1593.2) was purchased from ATCC. The cells were routinely maintained in RPMI-1640 Medium (Gibco, Catalog #11875-093) supplemented with 10% heat inactivated fetal bovine serum (Gibco, Catalog #16140-071), 100 units/mL penicillin and 100 μg/mL streptomycin (Gibco, Catalog #15140-122), in a humidified incubator (37° C., 5% CO2). For the assay, cells were resuspended in RPMI-1640 phenol red free Media (Gibco, Catalog #11835-030) supplemented with 10% fetal bovine serum (Sigma, Catalog #F2442), 100 units/mL penicillin and 100 ug/mL streptomycin. Cells were stimulated with 25 ng/mL human TNFalpha (Cell Sciences, Catalog #CSI15659B) and 25 μM z-VAD-FMK (R&D Systems, Catalog #FMK001) followed by seeding 5000 cells per well in a volume of 40 μL to a white, CulturPlate-384 (Perkin Elmer, Catalog #6007680). Stock solutions of the test compounds were prepared in 100% DMSO (Sigma, Catalog #D2650) and serially diluted 1:3 using 100% DMSO. Compounds were additionally diluted 1:40 in assay medium, and 10 μL/well was transferred to the plate. Following the compound addition the plate was incubated at 37° C. and 5% CO2 for 22 h. After 22 h, viability was assessed with the addition of 20 μL of Cell Titer-Glo 2.0 (Promega, Catalog #G9243). The tissue culture plate was shaken on an orbital shaker at 300 RPM for 15 minutes at rt in the dark. Luminescence was measured using a PerkinElmer Envision™ plate reader. IC50 values were calculated using a four-parameter logistic curve fit using Genedata Screener software. Results are shown below in Table 3, where the average value across multiple runs is given.

| Compound | IC50 |
| --- | --- |
| Cc1ccc(C2CC=NN2C(=O)C23CC(Cn4ncc5cc(C#N)ccc54)(C2)C3)cc1F (centres unmarked) [Example 239, 1-((3-(5-(3-fluoro-4-methyl-phenyl)-4,5-dihydro-1H-pyrazole-1-carbonyl)bicyclo-[1.1.1]pentan-1-yl)methyl)-1H-indazole-5-carbonitrile] | 0.01 µM |
| CC1CC(c2cccc(F)c2)N(C(=O)C23CC(Cn4ncc5cc(C#N)ccc54)(C2)C3)C1 (centres unmarked) [Example 257, 1-((3-(2-(3-fluorophenyl)-4-methylpyrrolidine-1-carbonyl)-bicyclo[1.1.1]pentan-1-yl)-methyl)-1H-indazole-5-carbonitrile] | 2.08 µM |
| N#Cc1ccc(OCC23CC(C(=O)N4CC(F)CC4c4cccc(F)c4)(C2)C3)nc1 (centres unmarked) [Example 288, 6-((3-(4-fluoro-2-(3-fluoro-phenyl)pyrrolidine-1-carbonyl)bicyclo[1.1.1]pentan-1-yl)methoxy)nicotinonitrile] | 0.276 µM |
| Cc1c(F)cc(C2CC=NN2C(=O)C23CC(COc4ccc(C#N)cn4)(C2)C3)cc1F (centres unmarked) [Example 264, 6-((3-(5-(3,5-difluoro-4-methylphenyl)-4,5-dihydro-1H-pyrazole-1-carbonyl)-bicyclo[1.1.1]pentan-1-yl)-methoxy)nicotinonitrile] | 0.012 µM |
| N#Cc1cnc(NCC23CC(C(=O)N4N=CCC4c4cc(F)cc(F)c4)(C2)C3)cn1 (centres unmarked) [Example 205, 5-(((3-(5-(3,5-Difluorophenyl)-4,5-dihydro-1H-pyrazole-1-carbonyl)bicyclo[1.1.1]pentan-1-yl)methyl)amino)pyrazine-2-carbonitrile] | 0.436 µM |
| N#Cc1cnc(OCC23CC(C(=O)N4N=CCC4c4c(F)cccc4F)(C2)C3)cn1 (centres unmarked) [Example 307, 5-((3-(5-(2,6-difluorophenyl)-4,5-dihydro-1H-pyrazole-1-carbonyl)bicyclo[1.1.1]pentan-1-yl)methoxy)pyrazine-2-carbonitrile] | 0.0087 µM |
| N#Cc1cc2cn(CC34CC(C(=O)N5N=CCC5c5cc(F)cc(F)c5)(C3)C4)nc2cc1Cl (centres unmarked) [Example 220, 6-chloro-2-((3-(5-(3,5-difluorophenyl)-4,5-dihydro-1H-pyrazole-1-carbonyl)-bicyclo[1.1.1]pentan-1-yl)-methyl)-2H-indazole-5-carbonitrile] | 0.312 µM |
| Cc1ccc(C2CC=NN2C(=O)C23CC(COc4ccc(C#N)cn4)(C2)C3)c(F)c1 (centres unmarked) [Example 271, 6-((3-(5-(2-fluoro-4-methyl-phenyl)-4,5-dihydro-1H-pyrazole-1-carbonyl)bicyclo-[1.1.1]pentan-1-yl)methoxy)-nicotinonitrile] | 0.02 µM |
| COc1cc(C(O)C23CC(C(=O)N4N=CCC4c4cc(F)cc(F)c4)(C2)C3)ncn1 (centres unmarked) [Example 232, (5-(3,5-difluorophenyl)-4,5-dihydro-1H-pyrazol-1-yl)(3-(hydroxy(6-methoxy-pyrimidin-4-yl)methyl)-bicyclo[1.1.1]pentan-1-yl)-methanone] | 8.11 µM |
| N#Cc1cnc(OCC23CC(C(=O)N4N=CCC4c4cccc(F)c4F)(C2)C3)cn1 (centres unmarked) [Example 306, 5-((3-(5-(2,3-difluorophenyl)-4,5-dihydro-1H-pyrazole-1-carbonyl)bicyclo[1.1.1]pentan-1-yl)methoxy)pyrazine-2-carbonitrile] | 0.0066 µM |
| N#Cc1cnc(OCC23CC(C(=O)N4N=CCC4c4cc(F)cc(F)c4)(C2)C3)nc1 (centres unmarked) [Example 324, 2-((3-(5-(3,5-difluorophenyl)-4,5-dihydro-1H-pyrazole-1-carbonyl)bicyclo[1.1.1]pentan-1-yl)methoxy)pyrimidine-5-carbonitrile] | 0.166 µM |
| O=C(N1N=CCC1c1cc(F)cc(F)c1)C12CC(C(F)c3cc(F)cc(Cl)c3)(C1)C2 (centres unmarked) [Example 227, (3-((3-chloro-5-fluorophenyl-)fluoromethyl)bicyclo[1.1.1]-pentan-1-yl)(5-(3,5-difluoro-phenyl)-4,5-dihydro-1H-pyrazol-1-yl)methanone] | 0.133 µM |
| Cc1c(F)cc([C@@H]2CC=NN2C(=O)C23CC(COc4ccc(C#N)cn4)(C2)C3)cc1F [Example 265, (S)-6-((3-(5-(3,5-difluoro-4-methylphenyl)-4,5-dihydro-1H-pyrazole-1-carbonyl)-bicyclo[1.1.1]pentan-1-yl)-methoxy)nicotinonitrile] | 0.0083 µM |
| N#Cc1cncc(C2CC=NN2C(=O)C23CC(COc4cnc(C#N)cn4)(C2)C3)c1 (centres unmarked) [Example 284, 5-((3-(5-(5-cyanopyridin-3-yl)-4,5-dihydro-1H-pyrazole-1-carbonyl)bicyclo[1.1.1]pentan-1-yl)methoxy)pyrazine-2-carbonitrile] | 0.161 µM |
| Cc1nc(C2CC=NN2C(=O)C23CC(COc4ccc(C#N)cn4)(C2)C3)ccc1F (centres unmarked) [Example 315, 6-((3-(5-(5-fluoro-6-methyl-pyridin-2-yl)-4,5-dihydro-1H-pyrazole-1-carbonyl)bicyclo-[1.1.1]pentan-1-yl)methoxy)-nicotinonitrile] | 0.666 µM |
| N#Cc1cnc(OCC23CC(C(=O)N4N=CCC4c4ncc5ccccn45)(C2)C3)cn1 (centres unmarked) [Example 316, 5-((3-(5-(imidazo[1,5-a]-pyridin-3-yl)-4,5-dihydro-1H-pyrazole-1-carbonyl)bicyclo-[1.1.1]pentan-1-yl)methoxy)-pyrazine-2-carbonitrile] | 0.694 µM |
| Cc1cccc(C2CC=NN2C(=O)C23CC(COc4ccc(C#N)cn4)(C2)C3)c1 (centres unmarked) [Example 279, 6-((3-(5-(m-tolyl)-4,5-dihydro-1H-pyrazole-1-carbonyl)-bicyclo[1.1.1]pentan-1-yl)-methoxy)nicotinonitrile] | 0.104 µM |
| Cc1ccc2c(cnn2CC23CC(C(=O)N4N=CCC4c4cc(F)cc(F)c4)(C2)C3)n1 (centres unmarked) [Example 165, (5-(3,5-difluorophenyl)-4,5-dihydro-1H-pyrazol-1-yl)(3-((5-methyl-1H-pyrazolo[4,3-b]pyridin-1-yl)methyl)-bicyclo[1.1.1]pentan-1-yl)methanone] | 0.193 µM |
| Cc1cc(F)c(C2CC=NN2C(=O)C23CC(COc4cnc(C#N)cn4)(C2)C3)cc1F (centres unmarked) [Example 195, 5-((3-(5-(2,5-Difluoro-4-methylphenyl)-4,5-dihydro-1H-pyrazole-1-carbonyl)bicyclo[1.1.1]pentan-1-yl)methoxy) pyrazine-2-carbonitrile] | 0.0015 µM |
| N#Cc1ccc2c(cnn2CC23CC(C(=O)N4N=CCC4c4cccc(Cl)c4Cl)(C2)C3)c1 (centres unmarked) [Example 245, 1-((3-(5-(2,3-dichlorophenyl)-4,5-dihydro-1H-pyrazole-1-carbonyl)bicyclo[1.1.1]pentan-1-yl)methyl)-1H-indazole-5-carbonitrile] | 0.043 µM |
| Cc1ccc(C2CC=NN2C(=O)C23CC(COc4cnc(C#N)cn4)(C2)C3)cc1 (centres unmarked) [Example 198, 5-((3-(5-(p-Tolyl)-4,5-dihydro-1H-pyrazole-1-carbonyl)bicyclo[1.1.1]pentan-1-yl)methoxy)pyrazine-2-carbonitrile] | 0.0074 µM |
| Cn1cc(-c2ccc(OCC34CC(C(=O)N5N=CCC5c5cc(F)cc(F)c5)(C3)C4)c(F)c2)cn1 (centres unmarked) [Example 204, (5-(3,5-Difluorophenyl)-4,5-dihydro-1H-pyrazol-1-yl)(3-((2-fluoro-4-(1-methyl-1H-pyrazol-4-yl)phenoxy)methyl)bicyclo[1.1.1]pentan-1-yl)methanone] | 0.022 µM |
| CC1CCN(C(=O)C23CC(COc4cnc(C#N)cn4)(C2)C3)C1c1ccccc1 (centres unmarked) [Example 302, 5-((3-(3-methyl-2-phenyl-pyrrolidine-1-carbonyl)-bicyclo[1.1.1]pentan-1-yl)-methoxy)pyrazine-2-carbonitrile] | 9.87 µM |
